Measurements from PubChem BioAssay (NCI).
“And” between values parts separate entries of the source, which are not always exact repeats. Equal values may be shown once.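 Results reflect a 48-hour exposure of cells in 96-well plates to compound at five concentrations. Abbreviation: GI50, concentration required for 50% inhibition of growth. The concentration for full growth arrest is given as TGI.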

Key:
Assay in all cases: growth of human tumour cells (NCI), 48 h
MDA-MB-231 breast = tested on: MDA-MB-231 breast
A549 NSCLC = tested on: A549 NSCLC
786-0 renal = tested on: 786-0 renal
T-47D breast = tested on: T-47D breast
UACC-257 melanoma = tested on: UACC-257 melanoma
SK-MEL-5 melanoma = tested on: SK-MEL-5 melanoma
OVCAR-4 ovarian = tested on: OVCAR-4 ovarian
MOLT-4 leukemia = tested on: MOLT-4 leukemia
UO-31 renal = tested on: UO-31 renal
CAKI-1 renal = tested on: CAKI-1 renal

Compound	GI50 (MDA-MB-231 breast)	TGI (MDA-MB-231 breast)	GI50 (A549 NSCLC)	TGI (A549 NSCLC)	GI50 (786-0 renal)	TGI (786-0 renal)	GI50 (T-47D breast)	TGI (T-47D breast)	GI50 (UACC-257 melanoma)	TGI (UACC-257 melanoma)	GI50 (SK-MEL-5 melanoma)	TGI (SK-MEL-5 melanoma)	GI50 (OVCAR-4 ovarian)	TGI (OVCAR-4 ovarian)	GI50 (MOLT-4 leukemia)	TGI (MOLT-4 leukemia)	GI50 (UO-31 renal)	TGI (UO-31 renal)	GI50 (CAKI-1 renal)	TGI (CAKI-1 renal)
O=C1C2CC3C(CC2C(=O)[N]1[Sn]([c]1ccccc1)([c]1ccccc1)[c]1ccccc1)C1(Cl)C(Cl)=C(Cl)C3(Cl)C1(Cl)Cl (configuration not stated)	0.127 µM	0.37 µM	0.14 µM	0.347 µM	0.157 µM	0.336 µM	0.0393 µM	0.22 µM	0.144 µM	0.324 µM	0.145 µM	0.301 µM	0.0781 µM	0.289 µM	0.0827 µM	0.546 µM	0.0743 µM	0.212 µM	0.12 µM	0.275 µM
CC1(C)SC2C(C(=O)O)N=C(Cc3ccccc3)N2C1C(=O)O (configuration not stated)		> 100 µM		> 100 µM		42.1 µM		73.7 µM		49.2 µM		> 100 µM		> 100 µM		> 100 µM		39.5 µM		> 100 µM
COc1ccc(C(=S)c2cc(OC)c(OC)c(OC)c2)cc1OC(=O)CCl	0.0253 µM		0.0849 µM	> 100 µM	0.183 µM	> 100 µM	22.1 µM	79.9 µM	> 100 µM	> 100 µM	0.0141 µM	0.0616 µM	0.073 µM	> 100 µM	< 0.0186 µM	> 100 µM	0.144 µM	> 95.7 µM	0.0449 µM	52.1 µM
O=c1ncc(-c2ccc(C(F)(F)F)cc2)c(NC2CCCCCC2)[nH]1	16.6 µM	38.1 µM	25.5 µM	> 100 µM	23.6 µM	52.4 µM	17.2 µM	57.8 µM	23.1 µM	57.6 µM	16.6 µM	30.6 µM	21.3 µM	77.5 µM	17.9 µM	43.1 µM	14.2 µM	38.9 µM	18.7 µM	48.4 µM
N=c1ccn2c(n1)OC1C(OP(=O)(O)O)C(CO)OC12 (configuration not stated)		> 100 µM		> 100 µM		> 100 µM		> 100 µM		> 100 µM		> 100 µM		> 100 µM		> 63.3 µM		> 100 µM		> 100 µM
O=C(OC(C(=O)O)C(OC(=O)c1ccccc1)C(=O)O)c1ccccc1 (configuration not stated) (tested in a mixture with another compound)		95.2 µM		> 100 µM		> 100 µM		> 100 µM		> 100 µM		43.2 µM		> 100 µM		> 100 µM		> 100 µM		> 100 µM and 52.2 µM
COc1ccc(OC)c(/C=C/c2nnc(Nc3ccc(Cl)cc3)o2)c1	5.23 µM	53.1 µM	3.67 µM	17.8 µM	2.67 µM	7.6 µM	2.54 µM	> 100 µM	21.3 µM	> 100 µM	7.17 µM	> 100 µM	2.44 µM	6.76 µM	> 100 µM	> 100 µM	3.13 µM	12.6 µM	6.02 µM	> 100 µM
O=S(=O)(/C=C/C=C/S(=O)(=O)c1ccccc1)c1ccccc1	1.87 µM	3.37 µM and 3.73 µM	3.97 µM	15.2 µM	0.956 µM	1.1 µM and 2.22 µM		2.69 µM	2 µM	1.9 µM and 4.82 µM	1.49 µM	2.68 µM and 2.98 µM		3.28 µM and 3.18 µM		1.85 µM		2.92 µM and 3.32 µM	1.04 µM	2.54 µM and 2.25 µM
O=C1C=C(Nc2ccccc2)c2ncccc2C1=O	0.485 µM	3.4 µM	0.476 µM	2.3 µM	1.52 µM	3.05 µM	1.27 µM	3.58 µM	1.29 µM	2.66 µM	0.177 µM	0.318 µM	0.321 µM	1.11 µM	1.02 µM	3.78 µM	0.333 µM	1.32 µM	1.39 µM	2.7 µM
CC(C)(Cl)CCC1=C(Cl)C(=O)c2ccccc2C1=O	1.73 µM	3.65 µM	3.2 µM	11 µM	3.41 µM	10.7 µM	1.97 µM	5.52 µM	1.67 µM	3.2 µM	1.78 µM	3.57 µM	1.55 µM	2.89 µM	1.91 µM	6.04 µM	1.59 µM	3.15 µM	1.87 µM	3.46 µM
COc1ccc(-c2cc(-c3ccc(Nc4nc(Nc5ccc(Cl)cc5)nc(Nc5ccc(Cl)cc5)n4)cc3)no2)cc1	16.4 µM	> 100 µM	16.4 µM	84.7 µM	5.42 µM	25.5 µM	6.26 µM	> 100 µM	33.2 µM	> 100 µM	5.08 µM	20.3 µM	14.7 µM	> 100 µM	1.39 µM	5.44 µM	5.36 µM	35.2 µM	15.5 µM	62.3 µM
Nc1ncc(-c2cnn(C3CCNCC3)c2)cc1-c1nc2ccccc2o1	2.32 µM	6.56 µM	1.2 µM	4.27 µM	1.4 µM	2.92 µM	1.67 µM	4.88 µM	2.04 µM	3.94 µM	2.03 µM	5.47 µM	1.3 µM	3.53 µM	0.361 µM	1.32 µM	0.714 µM	2.35 µM	0.532 µM	2.85 µM
CNC(=O)c1ccc(Nc2ncc(C(F)(F)F)c(NCc3nccnc3N(C)S(C)(=O)=O)n2)cc1	2.55 µM and 3.12 µM and 2.6 µM	> 10 µM and 11.9 µM	2.79 µM and 2.94 µM and 3.13 µM	> 10 µM and 8.79 µM and 12.1 µM	2.17 µM and 1.98 µM and 2.01 µM	> 10 µM and 11.6 µM and 18.3 µM	3.47 µM and 3.46 µM and 2.9 µM	> 10 µM and 12.5 µM and 10.4 µM	4.66 µM and 3.75 µM	> 10 µM and 11.2 µM and 15.5 µM	1.85 µM and 2.1 µM and 2.09 µM	4.59 µM and 4.55 µM and 5.49 µM	5.37 µM and 2.41 µM and 1.9 µM	> 10 µM and 12.8 µM and 10.5 µM	3.25 µM and 2.64 µM and 3.09 µM	9.97 µM and 8.58 µM and 8.76 µM	1.03 µM and 1.94 µM and 2.14 µM	5.12 µM and 6.97 µM and 8.22 µM	1.8 µM and 1.41 µM and 1.88 µM	> 10 µM and 8.35 µM and 12.1 µM
C=C(C)C(=O)NC(N)=NC#N	161 µM	301 µM		307 µM	30 µM	140 µM	57.5 µM	56.3 µM and 206 µM	69.4 µM	> 66.6 µM and 200 µM	171 µM	310 µM	140 µM	35.7 µM and 295 µM	21.5 µM and 46.7 µM	52.2 µM and 255 µM	134 µM	> 92.1 µM and 265 µM		44.7 µM and 82.9 µM
CC(=O)[O-].CC(=O)[O-].[Mn+2].c1ccc(/C(=N\Nc2ccccn2)c2ccccn2)cc1	0.0399 µM	16.3 µM		14.4 µM	0.097 µM	13.8 µM		12 µM	0.0496 µM	6.45 µM	0.0567 µM	5.38 µM		24.5 µM	0.00103 µM	1.29 µM		3.88 µM	0.0393 µM	8.47 µM
COc1ccc(-c2coc3ncnc(N)c23)cc1	> 25 µM	> 25 µM	> 25 µM	> 25 µM	> 25 µM	> 25 µM	> 25 µM	> 25 µM	> 25 µM	> 25 µM	> 25 µM	> 25 µM	> 25 µM	> 25 µM	> 25 µM	> 25 µM	> 25 µM	> 25 µM	> 25 µM	> 25 µM
CC1=CC2=C(OCO1)C(=O)c1ccccc1C2=O		22.4 µM		38.9 µM		> 56.9 µM		7.47 µM		7.29 µM		5.27 µM		8.5 µM		25.3 µM		28.7 µM		> 94 µM
CN1CCN(C(=O)c2ccc(NC(=O)Nc3ccc(N(C)c4ccnc(Nc5ccc(CS(C)(=O)=O)cc5)n4)cc3)cc2)CC1	> 23.8 µM	> 25 µM	> 23.3 µM	> 25 µM	> 25 µM	> 25 µM	4.68 µM	19.7 µM	> 25 µM	> 25 µM	12.4 µM	> 25 µM	8.15 µM	> 25 µM	9.25 µM	> 25 µM	> 25 µM	> 25 µM	> 25 µM	> 25 µM
CC(C)C1C(=O)N2CCCC2C2(O)OC(NC(=O)C3C=C4c5cccc6[nH]cc(c56)CC4N(C)C3)(C(C)C)C(=O)N12 (configuration not stated)		34.3 µM		67.3 µM		33 µM		> 100 µM		76.2 µM		57.9 µM		47.9 µM		53.8 µM		37 µM		37.9 µM
CCCCCCN(CCCCCC)C(=N)c1ccnc2ccccc12	5.13 µM	21.3 µM	11.9 µM	25.9 µM	2.82 µM	12.5 µM	3.04 µM	13.2 µM	2.37 µM	5.62 µM	1.96 µM	3.45 µM	5.98 µM	19.6 µM	3.11 µM	17.2 µM	0.708 µM	13 µM	3.18 µM	15 µM
C[C@H]1CCC/C=C/[C@@H]2C[C@H](O)C[C@H]2[C@H](O)[C@H](S(=O)c2ccc(O)cc2)CC(=O)O1 (some centres not stated)	0.0245 µM	0.0533 µM	0.0422 µM	> 100 µM	0.0251 µM	0.0793 µM	0.2 µM	0.67 µM	0.0222 µM			0.121 µM	0.0231 µM	0.978 µM	< 0.0212 µM		0.0205 µM	0.519 µM	0.114 µM	
O=c1oc2ccc(Cl)cc2c(=O)n1-c1ccc(Cl)cc1F	0.397 µM	4.59 µM	0.998 µM	> 31.6 µM	1.76 µM	4.8 µM	0.36 µM	2.2 µM	0.496 µM	2.31 µM	0.205 µM	0.486 µM	0.377 µM	78.9 µM	0.581 µM	2.69 µM	0.188 µM	1.62 µM	0.271 µM	1.67 µM
CCOC(=O)[C@H](CSSc1ncnc2cc[nH]c12)NC(=O)[C@@H](C)c1ccc2cc(OC)ccc2c1	1.08 µM	> 100 µM	6.36 µM	> 100 µM	0.347 µM	> 100 µM	0.0375 µM	> 100 µM	3.62 µM	> 100 µM	2.25 µM	> 32.5 µM	2.03 µM	> 100 µM	0.388 µM	> 100 µM	0.736 µM	> 100 µM	0.378 µM	> 100 µM
CCc1ccc(C2=C/C(=C/c3ccc(Cl)cc3)C(=O)N2CCc2ccc(S(N)(=O)=O)cc2)cc1	2.36 µM	5.92 µM	2.6 µM	7.37 µM	1.86 µM	3.53 µM	3.09 µM	11.9 µM	3.79 µM	15.3 µM	1.63 µM	3.07 µM	2.56 µM	8.03 µM	2.19 µM	6.87 µM	1.55 µM	4.53 µM	2.91 µM	12.4 µM
C/C(=C\c1ccn(-c2ccc(N)c(C(F)(F)F)c2)n1)[C@@H]1C[C@@H]2O[C@]2(C)CCC[C@H](C)[C@H](O)[C@@H](C)C(=O)C(C)(C)[C@@H](O)CC(=O)O1	0.134 µM	> 25 µM	< 0.0116 µM	> 32.5 µM	0.0175 µM	12.1 µM	0.0164 µM	28.3 µM	4.27 µM	> 32.5 µM	< 0.0108 µM	3.78 µM	0.132 µM	> 32.5 µM	0.0166 µM	19.8 µM	0.055 µM	> 32.5 µM	0.0429 µM	> 32.5 µM
CCCCCCCCCCCCCOC(=O)c1c(C)[nH]c(/C=C2\N=C(c3ccc[nH]3)C=C2OC)c1C	< 0.0314 µM		0.0419 µM	0.505 µM	0.161 µM	12.7 µM	0.0583 µM	> 43.4 µM	0.588 µM	> 100 µM	0.0194 µM	0.0911 µM	0.425 µM	> 100 µM	0.0807 µM	> 100 µM	0.103 µM	0.443 µM	0.0336 µM	
O=c1[nH]cnc2c(C3OC(CO)C(O)C3O)[nH]nc12 (configuration not stated)		> 100 µM				> 100 µM		> 100 µM		> 100 µM		> 100 µM		48.6 µM		81 µM		> 100 µM		> 100 µM
